Patent US20110034551A1, “METHODS OF INCREASING SARCOSINE LEVELS FOR TREATING SCHIZOPHRENIA” (BG MEDICINE, INC., priority 2007, published 2011)

Columns and labels:
[1] = system: plasma sarcosine; experiment: 28-day oral dosing study in rats, plasma sarcosine abundance by Polar LC/MS and GC/MS; type: in vivo, rat; conditions: 300 mg/kg daily oral, end of 28-day treatment
Source text: Fenofibrate (Sigma F-6020, Lot. 064K1584) and MPC-1 (Mitsubishi Pharma Corporation, Lot. F) were used in this study. These test substances were stored at room temperature.
Seventy-three male Crj:CD(SD)IGS rats (4.5 weeks old) were quarantined and acclimated for seven days after receipt. Two days before the initiation of dosing (Day −2), rats which had no abnormalities in clinical observation and body weight during the quarantine and acclimation period were selected and assigned to 5 groups using the stratified-by-weight randomization method to yield approximately the same mean body weights amongst the study groups.
The rats were dosed by oral gavage using a disposable stomach tube connecting to a syringe, at the dose volume of 5 mL/kg. The dosing was conducted once daily for 28 days. A control group was dosed with the vehicle only. Individual doses were calculated based on the most recently recorded body weights.
Preparation of dosing suspensions was as follows. The specified amount of test substance for each dose level was weighed and crushed with an agate mortar and a pestle. […]
Based on the total number of samples, the batches of samples were set up according to a batching scheme. Each sample was analyzed in duplicate. […] Each batch is analyzed in one analytical run. […]
All compounds eluting from the GC/MS column were detected in full scan mode. […]

[2] = biological target: T1, type 1 glycine transporter, GLYT1 (Rattus norvegicus, UniProt P28572); conditions: rat brain aggregates; Atkinson, et al. 2001; read-out: IC50 for inhibition of glycine transport; cited from earlier work
T1 construct: glycine transport in rat brain aggregates; host or cells: rat brain aggregates (endogenous protein)
T1 sequence (P28572 1-638): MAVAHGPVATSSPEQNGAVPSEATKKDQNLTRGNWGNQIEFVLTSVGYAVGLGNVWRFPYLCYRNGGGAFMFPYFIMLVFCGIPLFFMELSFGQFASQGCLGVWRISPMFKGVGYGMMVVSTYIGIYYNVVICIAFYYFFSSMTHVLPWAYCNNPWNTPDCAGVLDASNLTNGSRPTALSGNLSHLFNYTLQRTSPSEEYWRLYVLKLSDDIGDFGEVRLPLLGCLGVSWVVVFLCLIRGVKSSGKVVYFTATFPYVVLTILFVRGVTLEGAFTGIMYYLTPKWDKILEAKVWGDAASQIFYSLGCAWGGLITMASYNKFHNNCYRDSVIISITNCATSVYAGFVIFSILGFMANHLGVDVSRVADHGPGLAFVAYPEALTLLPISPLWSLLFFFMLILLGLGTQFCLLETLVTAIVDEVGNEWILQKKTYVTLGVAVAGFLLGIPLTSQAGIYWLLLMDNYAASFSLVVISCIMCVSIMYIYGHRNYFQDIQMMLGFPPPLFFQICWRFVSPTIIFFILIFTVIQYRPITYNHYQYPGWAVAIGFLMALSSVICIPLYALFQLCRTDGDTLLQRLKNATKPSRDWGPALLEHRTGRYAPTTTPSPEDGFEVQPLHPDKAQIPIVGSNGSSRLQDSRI

[3] = system: glycine transport; conditions: other studies; read-out: IC50 for inhibition of glycine transport; cited from earlier work
[4] = system: schizophrenia; conditions: 2 g/day as add-on therapy to certain antipsychotics (but not clozapine), schizophrenia patients; cited from earlier work

Row | SMILES | median fold change in plasma sarcosine abundance relative to vehicle ([1]; GC/MS platform) | median fold change in plasma sarcosine abundance relative to vehicle ([1]; Polar LC/MS platform) | IC50 [2] [µM] | IC50 [3] [µM] | effect on symptoms of schizophrenia [4]
1 | CC(C)OC(=O)C(C)(C)Oc1ccc(C(=O)c2ccc(Cl)cc2)cc1 [fenofibrate] | 3.74 | 4.25 |  |  | 
2 | CNCC(=O)O [sarcosine, N-methylglycine] |  |  | 13 | ~100 | additional reductions in both positive and negative symptomatology
